Each block holds one molecule with its values, some of them ahead of it.
Columns and labels:
[1] = molecular target: High affinity nerve growth factor receptor (Homo sapiens, UniProt P04629); experiment: Inhibition of TRKA (unknown origin)
[2] = molecular target: BDNF/NT-3 growth factors receptor (Homo sapiens, UniProt Q16620); experiment: Inhibition of TRKB (unknown origin)
[3] = molecular target: NT-3 growth factor receptor (Homo sapiens, UniProt Q16288); experiment: Inhibition of TRKC (unknown origin)
Chain of NT-3 growth factor receptor (Q16288 whole entry): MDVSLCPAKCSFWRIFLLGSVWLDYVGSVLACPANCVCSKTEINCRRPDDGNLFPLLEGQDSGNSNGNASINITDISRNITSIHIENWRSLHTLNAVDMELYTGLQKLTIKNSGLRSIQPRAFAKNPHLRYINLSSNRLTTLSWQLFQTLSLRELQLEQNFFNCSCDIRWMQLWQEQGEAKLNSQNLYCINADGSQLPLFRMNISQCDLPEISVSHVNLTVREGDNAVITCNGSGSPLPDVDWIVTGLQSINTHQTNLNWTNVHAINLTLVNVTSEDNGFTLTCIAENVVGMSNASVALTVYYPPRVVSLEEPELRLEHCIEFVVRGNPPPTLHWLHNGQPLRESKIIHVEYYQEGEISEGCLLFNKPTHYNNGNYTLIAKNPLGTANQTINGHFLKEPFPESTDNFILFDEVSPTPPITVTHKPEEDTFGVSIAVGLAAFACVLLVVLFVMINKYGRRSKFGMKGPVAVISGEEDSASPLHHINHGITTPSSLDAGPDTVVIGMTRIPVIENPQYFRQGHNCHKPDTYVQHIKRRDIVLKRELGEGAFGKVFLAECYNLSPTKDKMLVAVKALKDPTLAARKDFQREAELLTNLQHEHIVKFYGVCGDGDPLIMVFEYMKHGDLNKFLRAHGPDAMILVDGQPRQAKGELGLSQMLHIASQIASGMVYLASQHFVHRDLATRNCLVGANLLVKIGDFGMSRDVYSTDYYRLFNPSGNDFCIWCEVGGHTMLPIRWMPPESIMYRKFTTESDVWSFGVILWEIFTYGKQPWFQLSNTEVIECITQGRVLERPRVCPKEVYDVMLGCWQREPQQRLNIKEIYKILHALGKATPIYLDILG

[4] = molecular target: Vascular endothelial growth factor receptor 2 (Homo sapiens, UniProt P35968); experiment: Inhibition of KDR (unknown origin)
[5] = molecular target: Proto-oncogene tyrosine-protein kinase Src (Homo sapiens, UniProt P12931); experiment: Inhibition of Src (unknown origin)
[6] = molecular target: ALK tyrosine kinase receptor (Homo sapiens, UniProt Q9UM73); experiment: Inhibition of ALK (unknown origin)
[7] = molecular target: Epidermal growth factor receptor (Homo sapiens, UniProt P00533); experiment: Inhibition of EGFR (unknown origin)
[8] = molecular target: Fibroblast growth factor receptor 2 (Homo sapiens, UniProt P21802); experiment: Inhibition of FGFR2 (unknown origin)
[9] = molecular target: Receptor tyrosine-protein kinase erbB-2 (Homo sapiens, UniProt P04626); experiment: Inhibition of HER2 (unknown origin)
Insulin receptor = Insulin receptor (Homo sapiens, UniProt P06213); experiment: Inhibition of INSR (unknown origin)
Chain of Insulin receptor (P06213 28-758 limits assumed): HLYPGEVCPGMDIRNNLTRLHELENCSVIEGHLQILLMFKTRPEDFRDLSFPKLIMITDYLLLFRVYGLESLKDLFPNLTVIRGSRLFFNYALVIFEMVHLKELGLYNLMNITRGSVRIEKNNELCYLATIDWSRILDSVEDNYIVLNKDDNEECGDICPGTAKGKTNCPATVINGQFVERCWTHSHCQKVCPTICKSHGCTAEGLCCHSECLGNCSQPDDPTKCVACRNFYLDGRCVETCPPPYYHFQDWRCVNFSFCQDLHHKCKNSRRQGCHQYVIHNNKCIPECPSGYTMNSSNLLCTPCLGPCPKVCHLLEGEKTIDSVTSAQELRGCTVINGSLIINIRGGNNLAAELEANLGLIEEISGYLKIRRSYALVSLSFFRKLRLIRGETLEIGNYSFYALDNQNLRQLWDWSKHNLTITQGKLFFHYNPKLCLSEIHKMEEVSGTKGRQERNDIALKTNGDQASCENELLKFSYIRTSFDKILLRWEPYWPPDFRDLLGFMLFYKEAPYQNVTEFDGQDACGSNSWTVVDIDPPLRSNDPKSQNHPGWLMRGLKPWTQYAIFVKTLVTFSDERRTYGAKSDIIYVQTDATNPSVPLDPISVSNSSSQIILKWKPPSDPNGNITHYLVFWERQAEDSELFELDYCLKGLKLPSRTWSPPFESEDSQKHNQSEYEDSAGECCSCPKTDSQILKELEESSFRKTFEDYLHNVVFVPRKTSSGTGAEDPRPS
Chain of Insulin receptor (P06213 763-1382 limits assumed): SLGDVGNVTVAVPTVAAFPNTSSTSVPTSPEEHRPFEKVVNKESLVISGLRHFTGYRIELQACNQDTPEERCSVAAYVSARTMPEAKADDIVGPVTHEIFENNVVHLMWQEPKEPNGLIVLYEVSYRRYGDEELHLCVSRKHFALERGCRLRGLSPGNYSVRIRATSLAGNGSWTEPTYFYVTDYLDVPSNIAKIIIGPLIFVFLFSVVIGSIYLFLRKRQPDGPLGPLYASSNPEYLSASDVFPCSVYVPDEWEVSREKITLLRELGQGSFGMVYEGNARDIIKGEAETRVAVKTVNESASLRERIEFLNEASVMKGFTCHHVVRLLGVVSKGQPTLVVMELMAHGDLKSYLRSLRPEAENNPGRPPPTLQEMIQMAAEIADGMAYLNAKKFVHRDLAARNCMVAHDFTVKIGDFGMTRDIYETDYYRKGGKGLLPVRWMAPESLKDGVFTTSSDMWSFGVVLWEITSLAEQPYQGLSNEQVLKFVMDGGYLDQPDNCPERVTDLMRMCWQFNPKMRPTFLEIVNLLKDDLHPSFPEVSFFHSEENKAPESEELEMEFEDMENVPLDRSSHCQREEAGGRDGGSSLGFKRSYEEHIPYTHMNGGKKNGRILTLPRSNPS

[10] = molecular target: Tyrosine-protein kinase JAK2 (Homo sapiens, UniProt O60674); experiment: Inhibition of JAK2 (unknown origin)
Chain of Tyrosine-protein kinase JAK2 (O60674 whole entry): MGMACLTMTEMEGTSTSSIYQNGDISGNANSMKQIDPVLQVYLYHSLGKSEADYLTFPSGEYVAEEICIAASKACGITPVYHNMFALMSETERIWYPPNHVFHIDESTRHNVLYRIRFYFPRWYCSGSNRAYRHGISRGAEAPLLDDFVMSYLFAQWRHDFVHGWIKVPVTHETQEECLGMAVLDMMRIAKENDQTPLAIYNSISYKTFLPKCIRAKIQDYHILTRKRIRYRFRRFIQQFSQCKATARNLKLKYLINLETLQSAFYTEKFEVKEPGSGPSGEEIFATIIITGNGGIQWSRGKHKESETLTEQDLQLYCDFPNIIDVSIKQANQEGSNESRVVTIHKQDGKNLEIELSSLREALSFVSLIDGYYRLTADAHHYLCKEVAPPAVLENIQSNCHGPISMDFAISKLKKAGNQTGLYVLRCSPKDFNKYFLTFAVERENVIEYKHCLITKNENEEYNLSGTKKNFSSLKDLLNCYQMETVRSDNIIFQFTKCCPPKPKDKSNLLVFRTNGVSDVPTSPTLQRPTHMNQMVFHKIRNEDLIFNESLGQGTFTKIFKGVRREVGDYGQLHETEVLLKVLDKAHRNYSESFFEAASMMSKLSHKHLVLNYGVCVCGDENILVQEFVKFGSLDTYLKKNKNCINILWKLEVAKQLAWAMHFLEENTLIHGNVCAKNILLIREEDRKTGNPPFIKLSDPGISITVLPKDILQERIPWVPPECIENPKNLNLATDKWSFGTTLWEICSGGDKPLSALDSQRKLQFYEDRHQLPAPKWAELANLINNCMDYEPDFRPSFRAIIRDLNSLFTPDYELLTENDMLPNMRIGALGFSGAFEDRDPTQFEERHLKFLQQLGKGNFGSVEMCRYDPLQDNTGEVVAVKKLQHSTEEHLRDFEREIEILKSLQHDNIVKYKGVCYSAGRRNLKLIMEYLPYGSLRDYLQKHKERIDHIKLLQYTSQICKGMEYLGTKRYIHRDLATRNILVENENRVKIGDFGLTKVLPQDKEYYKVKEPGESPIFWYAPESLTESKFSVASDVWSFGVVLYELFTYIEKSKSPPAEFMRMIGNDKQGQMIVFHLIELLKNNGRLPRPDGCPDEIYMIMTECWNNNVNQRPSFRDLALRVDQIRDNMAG

[11] = molecular target: Hepatocyte growth factor receptor (Homo sapiens, UniProt P08581); experiment: Inhibition of MET (unknown origin)
[12] = molecular target: RAC-alpha serine/threonine-protein kinase (Homo sapiens, UniProt P31749); experiment: Inhibition of AKT1 (unknown origin)
[13] = molecular target: Cyclin-dependent kinase 1 (Homo sapiens, UniProt P06493); experiment: Inhibition of CDK1 (unknown origin)
Chain of Cyclin-dependent kinase 1 (P06493 whole entry): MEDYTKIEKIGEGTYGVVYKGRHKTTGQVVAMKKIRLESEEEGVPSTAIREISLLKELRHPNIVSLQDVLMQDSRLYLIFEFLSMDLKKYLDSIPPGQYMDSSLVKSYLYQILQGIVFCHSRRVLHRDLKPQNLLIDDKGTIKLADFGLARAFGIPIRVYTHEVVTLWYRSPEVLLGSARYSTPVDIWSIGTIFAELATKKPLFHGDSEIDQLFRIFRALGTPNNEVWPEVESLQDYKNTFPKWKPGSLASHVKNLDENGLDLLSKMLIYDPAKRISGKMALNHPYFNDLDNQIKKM

[14] = molecular target: Serine/threonine-protein kinase Chk1 (Homo sapiens, UniProt O14757); experiment: Inhibition of CHK1 (unknown origin)
Chain of Serine/threonine-protein kinase Chk1 (O14757 whole entry): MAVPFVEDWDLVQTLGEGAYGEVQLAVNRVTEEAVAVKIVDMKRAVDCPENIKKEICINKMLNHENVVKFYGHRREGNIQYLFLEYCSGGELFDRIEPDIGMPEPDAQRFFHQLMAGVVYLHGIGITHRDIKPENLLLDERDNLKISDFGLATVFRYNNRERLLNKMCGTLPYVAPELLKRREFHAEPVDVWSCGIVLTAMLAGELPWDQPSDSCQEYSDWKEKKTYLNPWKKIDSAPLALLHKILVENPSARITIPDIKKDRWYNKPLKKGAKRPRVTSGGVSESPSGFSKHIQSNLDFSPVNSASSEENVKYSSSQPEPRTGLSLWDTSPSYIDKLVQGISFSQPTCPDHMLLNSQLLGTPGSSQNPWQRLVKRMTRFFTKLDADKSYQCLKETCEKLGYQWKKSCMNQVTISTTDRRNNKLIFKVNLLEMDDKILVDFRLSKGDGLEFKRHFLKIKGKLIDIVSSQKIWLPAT

[15] = molecular target: cAMP-dependent protein kinase (PKA) (Homo sapiens, UniProt P22694+P17612+P22612); experiment: Inhibition of PKA (unknown origin); format: protein assay
[16] = molecular target: Protein kinase C alpha type (Homo sapiens, UniProt P17252); experiment: Inhibition of PKCalpha (unknown origin)
[17] = molecular target: RAF proto-oncogene serine/threonine-protein kinase (Homo sapiens, UniProt P04049); experiment: Inhibition of RAF1 (unknown origin)
CYP3A4 = CYP3A4 (Homo sapiens, UniProt P08684); experiment: Induction of CYP3A4 in human hepatocytes assessed as fold induction at 1 uM using testosterone as substrate preincubated with replacement of fresh medium containing compound every 24 hrs for 72 hrs followed by substrate addition and measured after 1 hr by LC-MS/MS analysis relative to control; format: ADME, cell-based, Hepatocyte; conditions: probe testosterone, time 73 hrs, read-out: FC
[18] = molecular target: Tyrosine-protein kinase Lck (Homo sapiens, UniProt P06239); experiment: Inhibition of LCK (unknown origin)
NIH3T3 [19] = experiment: Antiproliferative activity against […] NIH3T3 cells expressing MPRIP-NTRK1 assessed as cell growth inhibition incubated for 4 to 7 days by CellTiter-Glo Luminescent Cell Viability Assay; format: functional, cell-based; conditions: Mus musculus
NIH3T3 [20] = experiment: Antitumor activity against mouse NIH3T3 cells implanted in mouse assessed as tumor growth inhibition at 0.16 mg/kg, po administered once daily for 11 days and measured on day 12 relative to control; format: functional; conditions: NIH3T3, 288 h, time 12 day, read-out: TGI
NIH3T3 [21] = experiment: Antitumor activity against mouse NIH3T3 cells implanted in mouse assessed as tumor growth inhibition at 0.63 mg/kg, po administered once daily for 11 days and measured on day 12 relative to control; format: functional; conditions: NIH3T3, 288 h, time 12 day, read-out: TGI
NIH3T3 [22] = experiment: Antitumor activity against mouse NIH3T3 cells implanted in mouse assessed as tumor growth inhibition at 2.5 mg/kg, po administered once daily for 11 days and measured on day 12 relative to control; format: functional; conditions: NIH3T3, 288 h, time 12 day, read-out: TGI
NIH3T3 [23] = experiment: Antitumor activity against mouse NIH3T3 cells implanted in mouse assessed as tumor growth inhibition at 10 mg/kg, po administered once daily for 11 days and measured on day 12 relative to control; format: functional; conditions: NIH3T3, 288 h, time 12 day, read-out: TGI
NIH3T3 [24] = experiment: Antitumor activity against mouse NIH3T3 cells implanted in mouse assessed as tumor regression at 2.5 mg/kg, po administered once daily for 11 days and measured on day 12 relative to control; format: functional; conditions: time 12 day
NIH3T3 [25] = experiment: Antitumor activity against mouse NIH3T3 cells implanted in mouse assessed as tumor regression at 10 mg/kg, po administered once daily for 11 days and measured on day 12 relative to control; format: functional; conditions: time 12 day
[26] = Toxicity in mouse assessed as body weight loss at 10 mg/kg, po administered once daily for 11 days and measured on day 12; format: organism-based; conditions: in vivo, 288 h, time 12 day
[27] = Antitumor activity against human CUTO-3 cells xenografted in mouse assessed as tumor growth inhibition at 10 mg/kg, po administered once daily for 11 days and measured on day 12 relative to control; format: functional; conditions: CUTO-3, 288 h, time 12 day, read-out: TGI
[28] = Oral bioavailability in Wistar Hannover rat at 1 mg/kg by LC-MS analysis; format: ADME, organism-based; conditions: in vivo
[29] = Oral bioavailability in Beagle dog at 1 mg/kg by LC-MS analysis; format: ADME, organism-based, Canis lupus familiaris; conditions: in vivo
[30] = AUC in Wistar Hannover rat at 1 mg/kg, po by LC-MS analysis; format: ADME, organism-based; parameters: dose 1 mg/kg, route po; conditions: in vivo
[31] = AUC in Beagle dog at 1 mg/kg, po by LC-MS analysis; format: ADME, organism-based, Canis lupus familiaris; parameters: dose 1 mg/kg, route po; conditions: in vivo
[32] = Cmax in Wistar Hannover rat at 1 mg/kg, po by LC-MS analysis; format: ADME, organism-based; parameters: dose 1 mg/kg, route po; conditions: in vivo
[33] = Cmax in Beagle dog at 1 mg/kg, po by LC-MS analysis; format: ADME, organism-based, Canis lupus familiaris; parameters: dose 1 mg/kg, route po; conditions: in vivo
[34] = Half life in Wistar Hannover rat at 1 mg/kg, po by LC-MS analysis; format: ADME, organism-based; conditions: in vivo
[35] = Half life in Beagle dog at 1 mg/kg, po by LC-MS analysis; format: ADME, organism-based, Canis lupus familiaris; conditions: in vivo
[36] = Clearance in Wistar Hannover rat at 1 mg/kg, iv by LC-MS analysis; format: ADME, organism-based; conditions: in vivo
[37] = Clearance in Beagle dog at 1 mg/kg, iv by LC-MS analysis; format: ADME, organism-based, Canis lupus familiaris; conditions: in vivo
[38] = Volume of distribution at steady state in Wistar Hannover rat at 1 mg/kg, iv by LC-MS analysis; format: ADME, organism-based; conditions: in vivo, read-out: Vdss
[39] = Volume of distribution at steady state in Beagle dog at 1 mg/kg, iv by LC-MS analysis; format: ADME, organism-based, Canis lupus familiaris; conditions: in vivo, read-out: Vdss
[40] = Half life in Wistar Hannover rat at 1 mg/kg, iv by LC-MS analysis; format: ADME, organism-based; conditions: in vivo
[41] = Half life in Beagle dog at 1 mg/kg, iv by LC-MS analysis; format: ADME, organism-based, Canis lupus familiaris; conditions: in vivo

Chain of BDNF/NT-3 growth factors receptor (Q16620 whole entry): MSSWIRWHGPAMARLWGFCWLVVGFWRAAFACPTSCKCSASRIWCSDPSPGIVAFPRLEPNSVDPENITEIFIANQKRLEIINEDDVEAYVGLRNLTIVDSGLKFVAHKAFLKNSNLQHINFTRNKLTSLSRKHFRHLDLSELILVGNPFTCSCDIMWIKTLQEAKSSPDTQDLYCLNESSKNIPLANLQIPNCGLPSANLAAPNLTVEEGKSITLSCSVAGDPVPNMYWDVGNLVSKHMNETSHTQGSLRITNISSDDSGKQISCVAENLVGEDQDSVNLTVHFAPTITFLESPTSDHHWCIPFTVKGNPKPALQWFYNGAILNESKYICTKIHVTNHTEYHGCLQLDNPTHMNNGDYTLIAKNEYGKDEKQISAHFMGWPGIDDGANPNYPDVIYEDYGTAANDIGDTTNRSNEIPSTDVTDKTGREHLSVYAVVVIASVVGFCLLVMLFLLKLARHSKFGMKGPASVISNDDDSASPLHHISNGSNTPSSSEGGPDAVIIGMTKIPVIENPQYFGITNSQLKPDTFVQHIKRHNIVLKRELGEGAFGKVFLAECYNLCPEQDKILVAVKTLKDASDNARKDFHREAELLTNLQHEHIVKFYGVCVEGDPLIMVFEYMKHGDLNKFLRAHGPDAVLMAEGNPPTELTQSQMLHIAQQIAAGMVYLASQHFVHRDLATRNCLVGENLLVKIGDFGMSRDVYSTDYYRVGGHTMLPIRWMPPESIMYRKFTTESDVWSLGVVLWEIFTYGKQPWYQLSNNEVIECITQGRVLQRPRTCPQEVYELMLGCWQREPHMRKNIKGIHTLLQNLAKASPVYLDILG

IC50 [1]: 0.0012 µM | IC50 [2]: 0.002 µM | IC50 [3]: 0.0028 µM | IC50 [4]: > 1 µM | IC50 [5]: > 10 µM | IC50 [6]: > 10 µM | IC50 [7]: > 10 µM | IC50 [8]: > 10 µM | IC50 [9]: > 10 µM | IC50 (Insulin receptor): > 10 µM | IC50 [10]: > 10 µM | IC50 [11]: > 10 µM | IC50 [12]: > 10 µM | IC50 [13]: > 10 µM | IC50 [14]: > 10 µM | IC50 [15]: > 10 µM | IC50 [16]: > 10 µM | IC50 [17]: > 10 µM | fold induction at 1 h, 1 µM (CYP3A4): 3 | IC50 [18]: 0.3 µM | bioavailability [28]: 38% | bioavailability [29]: 97.5% | AUC [30]: 5950 ng·h/mL | AUC [31]: 11000 ng·h/mL | Cmax [32]: 581 ng/mL | Cmax [33]: 763 ng/mL | half-life [34]: 9.01 h | half-life [35]: 15.2 h | clearance [36]: 1.07 mL/min/kg | clearance [37]: 1.48 mL/min/kg | Vd [38]: 0.587 L/kg | Vd [39]: 1.69 L/kg | half-life [40]: 7.49 h | half-life [41]: 12.7 h
SMILES: Cc1cc(C(=O)NC(C)(C)C)cc(C#Cc2ccc3c4c(oc3c2)C(C)(C)c2cc(NS(C)(=O)=O)ccc2C4=O)n1
IC50 (NIH3T3 [19]): 0.0084 µM | inhibition in vivo at 0.16 mg/kg (NIH3T3 [20]): 14% | inhibition in vivo at 0.63 mg/kg (NIH3T3 [21]): 16% | inhibition in vivo at 2.5 mg/kg (NIH3T3 [22]): 102% | inhibition in vivo at 10 mg/kg (NIH3T3 [23]): 105% | Activity (NIH3T3 [24]): 26% | Activity (NIH3T3 [25]): 72% | Activity [26]: Non-Toxic | inhibition in vivo at 10 mg/kg [27]: 171%

IC50 [1]: 0.0045 µM | IC50 [2]: 0.0081 µM | IC50 [3]: 0.0069 µM | IC50 [4]: 0.757 µM | IC50 [5]: 2 µM | IC50 [6]: 2.8 µM | IC50 [7]: > 10 µM | IC50 [8]: > 10 µM | IC50 [9]: > 10 µM | IC50 (Insulin receptor): > 10 µM | IC50 [10]: > 10 µM | IC50 [11]: > 10 µM | IC50 [12]: > 10 µM | IC50 [13]: > 10 µM | IC50 [14]: > 10 µM | IC50 [15]: > 10 µM | IC50 [16]: > 10 µM | IC50 [17]: > 10 µM | fold induction at 1 h, 1 µM (CYP3A4): 6.5
SMILES: CC1(C)c2cc(OCCN3CCOCC3)ccc2C(=O)c2c1oc1cc(C#Cc3cc(OCC4CC4)ccn3)ccc21

Reference: ChEMBL document CHEMBL5113522, “Discovery of CH7057288 as an Orally Bioavailable, Selective, and Potent pan-TRK Inhibitor” (J Med Chem, 2022)
